Data reported in ChEMBL document CHEMBL1201861, “Genomics of Drug Sensitity in Cancer screening data, Wellcome Trust Sanger Institute”.

Assays:
Assay in all cases: cells
Type in all cases: functional, cell-based
Settings in all cases: Homo sapiens
KP-N-YS = test system: KP-N-YS;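 further: cell viability assay measuring inhibition of cell line growth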
Description: SANGER: Inhibition of human KP-N-YS cell growth in a cell viability assay.

BB49-HNC = test system: BB49-HNC;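 further: cell viability assay read-out, reported as inhibition of BB49-HNC cell growth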
Description: SANGER: Inhibition of human BB49-HNC cell growth in a cell viability assay.

NCI-H209 = test system: NCI-H209;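 further: growth inhibition of human NCI-H209 cells, measured by a cell viability assay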
Description: SANGER: Inhibition of human NCI-H209 cell growth in a cell viability assay.

LAMA-84 = test system: LAMA-84;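 further: growth inhibition of LAMA-84 cells, read out with a cell viability assay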
Description: SANGER: Inhibition of human LAMA-84 cell growth in a cell viability assay.

EW-24 = test system: EW-24;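 further: human EW-24 cancer cell line, growth inhibition read out via a cell viability assay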
Description: SANGER: Inhibition of human EW-24 cell growth in a cell viability assay.

KE-37 = test system: KE-37;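 further: growth inhibition of KE-37 cells, read out with a cell viability assay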
Description: SANGER: Inhibition of human KE-37 cell growth in a cell viability assay.

SW872 = test system: SW872;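 further: growth inhibition of SW872 cells, read out by a viability assay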
Description: SANGER: Inhibition of human SW872 cell growth in a cell viability assay.

NMC-G1 = test system: NMC-G1;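 further: growth inhibition of the NMC-G1 cell line, measured with a cell viability read-out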
Description: SANGER: Inhibition of human NMC-G1 cell growth in a cell viability assay.

CTV-1 = test system: CTV-1;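 further: growth inhibition of the cell line, read out with a cell viability assay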
Description: SANGER: Inhibition of human CTV-1 cell growth in a cell viability assay.

DJM-1 = test system: DJM-1;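 further: growth inhibition of human DJM-1 cells, read out by a cell viability assay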
Description: SANGER: Inhibition of human DJM-1 cell growth in a cell viability assay.

SW684 = test system: SW684;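 further: growth inhibition of human SW684 cells, measured by a cell viability assay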
Description: SANGER: Inhibition of human SW684 cell growth in a cell viability assay.

OMC-1 = test system: OMC-1;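 further: growth inhibition of the OMC-1 cell line, measured by a cell viability assay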
Description: SANGER: Inhibition of human OMC-1 cell growth in a cell viability assay.

RKO = test system: RKO;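 further: growth inhibition of human RKO cells, read out with a cell viability assay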
Description: SANGER: Inhibition of human RKO cell growth in a cell viability assay.

KARPAS-45 = test system: KARPAS-45;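 further: inhibition of cell line growth, read out through a viability assay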
Description: SANGER: Inhibition of human KARPAS-45 cell growth in a cell viability assay.

SW 962 = test system: SW 962;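 further: growth inhibition of human SW962 cells, read out by a cell viability assay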
Description: SANGER: Inhibition of human SW962 cell growth in a cell viability assay.

MC116 = test system: MC116;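 further: growth inhibition of MC116 cells, read out with a cell viability assay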
Description: SANGER: Inhibition of human MC116 cell growth in a cell viability assay.

HCC1187 = test system: HCC1187;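 further: growth inhibition of HCC1187 cells, read out with a cell viability assay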
Description: SANGER: Inhibition of human HCC1187 cell growth in a cell viability assay.

TE-8 = test system: TE-8;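 further: growth inhibition of TE-8 cells, measured with a cell viability readout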
Description: SANGER: Inhibition of human TE-8 cell growth in a cell viability assay.

HDLM-2 = test system: HDLM-2;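 further: cell viability assay measuring suppression of HDLM-2 proliferation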
Description: SANGER: Inhibition of human HDLM-2 cell growth in a cell viability assay.

HD-MY-Z = test system: HD-MY-Z;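 further: growth inhibition of HD-MY-Z cells, read out with a cell viability assay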
Description: SANGER: Inhibition of human HD-MY-Z cell growth in a cell viability assay.

BE-13 = test system: BE-13;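 further: growth inhibition of human BE-13 cells, measured with a cell viability assay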
Description: SANGER: Inhibition of human BE-13 cell growth in a cell viability assay.

A704 = test system: A704;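 further: growth inhibition of human A704 cells, read out with a cell viability assay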
Description: SANGER: Inhibition of human A704 cell growth in a cell viability assay.

ES7 = test system: ES7;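 further: growth inhibition of cultured human ES7 cells, read out as cell viability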
Description: SANGER: Inhibition of human ES7 cell growth in a cell viability assay.

NEC8 = test system: NEC8;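 further: growth inhibition of human NEC8 cells, read out by a cell viability assay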
Description: SANGER: Inhibition of human NEC8 cell growth in a cell viability assay.

NCI-H1155 = test system: NCI-H1155;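 further: cell growth inhibition measured by a viability assay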
Description: SANGER: Inhibition of human NCI-H1155 cell growth in a cell viability assay.

D-502MG = test system: D-502MG
Description: SANGER: Inhibition of human D-502MG cell growth in a cell viability assay.

ES5 = test system: ES5;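 further: growth inhibition of human ES5 cells, read out by a cell viability assay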
Description: SANGER: Inhibition of human ES5 cell growth in a cell viability assay.

LS-513 = test system: LS-513
Description: SANGER: Inhibition of human LS-513 cell growth in a cell viability assay.

Mo = test system: Mo
Description: SANGER: Inhibition of human Mo-T cell growth in a cell viability assay.

IST-SL1 = test system: IST-SL1;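 further: growth inhibition of human IST-SL1 cells, read out with a cell viability assay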
Description: SANGER: Inhibition of human IST-SL1 cell growth in a cell viability assay.

RPMI-8226 = test system: RPMI-8226
Description: SANGER: Inhibition of human RPMI-8226 cell growth in a cell viability assay.

COLO-684 = test system: COLO-684
Description: SANGER: Inhibition of human COLO-684 cell growth in a cell viability assay.

HT-144 = test system: HT-144
Description: SANGER: Inhibition of human HT-144 cell growth in a cell viability assay.

LC-2-ad = test system: LC-2-ad;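 further: growth inhibition of human LC-2-ad cells, read out with a cell viability assay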
Description: SANGER: Inhibition of human LC-2-ad cell growth in a cell viability assay.

SK-LMS-1 = test system: SK-LMS-1;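 further: growth inhibition of human SK-LMS-1 cells, read out with a cell viability assay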
Description: SANGER: Inhibition of human SK-LMS-1 cell growth in a cell viability assay.

NOS-1 = test system: NOS-1;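 further: growth inhibition of the human NOS-1 cell line, read out with a cell viability assay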
Description: SANGER: Inhibition of human NOS-1 cell growth in a cell viability assay.

EW-1 = test system: EW-1;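 further: growth inhibition of the human EW-1 cell line, read out by a cell viability assay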
Description: SANGER: Inhibition of human EW-1 cell growth in a cell viability assay.

Calu-6 = test system: Calu-6;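 further: growth of human Calu-6 cells, read out by a cell viability assay, IC50 marking inhibition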
Description: SANGER: Inhibition of human Calu-6 cell growth in a cell viability assay.

CGTH-W-1 = test system: CGTH-W-1;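 further: growth inhibition of human CGTH-W-1 cells measured by cell viability assay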
Description: SANGER: Inhibition of human CGTH-W-1 cell growth in a cell viability assay.

D283 Med = test system: D283 Med
Description: SANGER: Inhibition of human D-283MED cell growth in a cell viability assay.

CTB-1 = test system: CTB-1
Description: SANGER: Inhibition of human CTB-1 cell growth in a cell viability assay.

SK-N-DZ = test system: SK-N-DZ;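 further: growth inhibition of the cancer cell line, read out through a viability assay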
Description: SANGER: Inhibition of human SK-N-DZ cell growth in a cell viability assay.

SBC-1 = test system: SBC-1;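 further: cell viability assay measuring growth inhibition of the SBC-1 cell line, IC50 being the concentration that halves growth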
Description: SANGER: Inhibition of human SBC-1 cell growth in a cell viability assay.

NCI-H1581 = test system: NCI-H1581;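 further: cell growth inhibition read out by a viability assay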
Description: SANGER: Inhibition of human NCI-H1581 cell growth in a cell viability assay.

MZ2-MEL = test system: MZ2-MEL;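 further: growth inhibition of MZ2-MEL cells read out with a cell viability assay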
Description: SANGER: Inhibition of human MZ2-MEL cell growth in a cell viability assay.

CP66-MEL = test system: CP66-MEL;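 further: growth inhibition of CP66-MEL cells determined in a cell viability assay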
Description: SANGER: Inhibition of human CP66-MEL cell growth in a cell viability assay.

TE-12 = test system: TE-12;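 further: growth inhibition of TE-12 cells, read out by a cell viability assay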
Description: SANGER: Inhibition of human TE-12 cell growth in a cell viability assay.

EW-16 = test system: EW-16;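 further: growth inhibition of human EW-16 cells, read out as cell viability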
Description: SANGER: Inhibition of human EW-16 cell growth in a cell viability assay.

NTERA-2-cl-D1 = test system: NTERA-2-cl-D1;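 further: inhibition of cell growth, measured with a cell viability assay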
Description: SANGER: Inhibition of human NTERA-S-cl-D1 cell growth in a cell viability assay.

DB = test system: DB
Description: SANGER: Inhibition of human DB cell growth in a cell viability assay.

JVM-2 = test system: JVM-2;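 further: growth inhibition of JVM-2 cells determined by a cell viability assay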
Description: SANGER: Inhibition of human JVM-2 cell growth in a cell viability assay.

RS4-11 = test system: RS4-11;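 further: growth inhibition of RS4-11 cells, read out by a cell viability assay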
Description: SANGER: Inhibition of human RS4-11 cell growth in a cell viability assay.

DEL = test system: DEL;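 further: growth inhibition of the human DEL cell line, read out with a cell viability assay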
Description: SANGER: Inhibition of human DEL cell growth in a cell viability assay.

MZ7-mel = test system: MZ7-mel;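 further: growth inhibition of human MZ7-mel cells, measured by a cell viability assay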
Description: SANGER: Inhibition of human MZ7-mel cell growth in a cell viability assay.

EW-18 = test system: EW-18;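 further: growth inhibition of EW-18 cells, read out by a cell viability assay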
Description: SANGER: Inhibition of human EW-18 cell growth in a cell viability assay.

NOMO-1 = test system: NOMO-1;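 further: growth inhibition of human NOMO-1 cells measured by a cell viability assay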
Description: SANGER: Inhibition of human NOMO-1 cell growth in a cell viability assay.

HC-1 = test system: HC-1;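 further: growth inhibition of HC-1 cells measured by a cell viability assay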
Description: SANGER: Inhibition of human HC-1 cell growth in a cell viability assay.

GOTO = test system: GOTO
Description: SANGER: Inhibition of human GOTO cell growth in a cell viability assay.

RH-1 = test system: RH-1
Description: SANGER: Inhibition of human RH-1 cell growth in a cell viability assay.

CW-2 = test system: CW-2
Description: SANGER: Inhibition of human CW-2 cell growth in a cell viability assay.

GCIY = test system: GCIY
Description: SANGER: Inhibition of human GCIY cell growth in a cell viability assay.

MFM-223 = test system: MFM-223
Description: SANGER: Inhibition of human MFM-223 cell growth in a cell viability assay.

MEG-01 = test system: MEG-01
Description: SANGER: Inhibition of human MEG-01 cell growth in a cell viability assay.

KNS-42 = test system: KNS-42
Description: SANGER: Inhibition of human KNS-42 cell growth in a cell viability assay.

MZ1-PC = test system: MZ1-PC
Description: SANGER: Inhibition of human MZ1-PC cell growth in a cell viability assay.

EOL1 = test system: EOL1
Description: SANGER: Inhibition of human EoL-1-cell cell growth in a cell viability assay.

Cc1[nH]c(/C=C2\C(=O)Nc3ccc(S(=O)(=O)Cc4c(Cl)cccc4Cl)cc32)c(C)c1C(=O)N1CCC[C@@H]1CN1CCCC1 [PHA-665752]
IC50 (KP-N-YS): > 2000 nM | IC50 (BB49-HNC): > 2000 nM | IC50 (NCI-H209): > 2000 nM | IC50 (LAMA-84): > 2000 nM | IC50 (EW-24): > 2000 nM | IC50 (KE-37): > 2000 nM | IC50 (SW872): > 2000 nM | IC50 (NMC-G1): > 2000 nM | IC50 (CTV-1): > 2000 nM | IC50 (DJM-1): > 2000 nM | IC50 (SW684): > 2000 nM | IC50 (OMC-1): > 2000 nM | IC50 (RKO): > 2000 nM | IC50 (KARPAS-45): > 2000 nM | IC50 (SW 962): > 2000 nM | IC50 (MC116): > 2000 nM | IC50 (HCC1187): > 2000 nM | IC50 (TE-8): > 2000 nM | IC50 (HDLM-2): > 2000 nM | IC50 (HD-MY-Z): > 2000 nM | IC50 (BE-13): > 2000 nM | IC50 (A704): > 2000 nM | IC50 (ES7): > 2000 nM | IC50 (NEC8): > 2000 nM | IC50 (NCI-H1155): > 2000 nM | IC50 (D-502MG): > 2000 nM | IC50 (ES5): > 2000 nM | IC50 (LS-513): > 2000 nM | IC50 (Mo): > 2000 nM | IC50 (IST-SL1): > 2000 nM | IC50 (RPMI-8226): > 2000 nM | IC50 (COLO-684): > 2000 nM | IC50 (HT-144): > 2000 nM | IC50 (LC-2-ad): > 2000 nM | IC50 (SK-LMS-1): 898 nM | IC50 (NOS-1): > 2000 nM | IC50 (EW-1): > 2000 nM | IC50 (Calu-6): > 2000 nM | IC50 (CGTH-W-1): > 2000 nM | IC50 (D283 Med): > 2000 nM | IC50 (CTB-1): > 2000 nM | IC50 (SK-N-DZ): > 2000 nM | IC50 (SBC-1): > 2000 nM | IC50 (NCI-H1581): > 2000 nM | IC50 (MZ2-MEL): > 2000 nM | IC50 (CP66-MEL): > 2000 nM | IC50 (TE-12): > 2000 nM | IC50 (EW-16): > 2000 nM | IC50 (NTERA-2-cl-D1): > 2000 nM | IC50 (DB): > 2000 nM | IC50 (JVM-2): > 2000 nM | IC50 (RS4-11): > 2000 nM | IC50 (DEL): > 2000 nM | IC50 (MZ7-mel): > 2000 nM | IC50 (EW-18): > 2000 nM | IC50 (NOMO-1): > 2000 nM | IC50 (HC-1): > 2000 nM | IC50 (GOTO): > 2000 nM | IC50 (RH-1): > 2000 nM | IC50 (CW-2): > 2000 nM | IC50 (GCIY): > 2000 nM | IC50 (MFM-223): > 2000 nM | IC50 (MEG-01): > 2000 nM | IC50 (KNS-42): > 2000 nM | IC50 (MZ1-PC): > 2000 nM | IC50 (EOL1): > 2000 nM

C/C=C(/C)C(=O)O[C@H]1C(C)=C2[C@H]([C@@H]1OC(=O)CCCCCCC)[C@@](C)(OC(C)=O)C[C@H](OC(=O)CCC)[C@@]1(O)[C@H]2OC(=O)[C@@]1(C)O [THAPSIGARGIN]
IC50 (KP-N-YS): 8.06 nM | IC50 (BB49-HNC): > 512 nM | IC50 (NCI-H209): 18.1 nM | IC50 (LAMA-84): 19.4 nM | IC50 (EW-24): 149 nM | IC50 (KE-37): 7.53 nM | IC50 (SW872): 5.78 nM | IC50 (NMC-G1): 21.5 nM | IC50 (CTV-1): 5.2 nM | IC50 (DJM-1): 54.7 nM | IC50 (SW684): > 512 nM | IC50 (OMC-1): 83 nM | IC50 (RKO): 1.61 nM | IC50 (KARPAS-45): 8.06 nM | IC50 (SW 962): 6.85 nM | IC50 (MC116): < 2 nM | IC50 (HCC1187): 505 nM | IC50 (TE-8): 1.37 nM | IC50 (HDLM-2): 215 nM | IC50 (HD-MY-Z): 17.5 nM | IC50 (BE-13): 7.35 nM | IC50 (A704): 247 nM | IC50 (ES7): 21.1 nM | IC50 (NEC8): 11 nM | IC50 (NCI-H1155): 285 nM | IC50 (D-502MG): 343 nM | IC50 (ES5): > 512 nM | IC50 (LS-513): 154 nM | IC50 (Mo): > 512 nM | IC50 (IST-SL1): 24.2 nM | IC50 (RPMI-8226): 14.9 nM | IC50 (COLO-684): 345 nM | IC50 (HT-144): 0.518 nM | IC50 (LC-2-ad): 4.64 nM | IC50 (SK-LMS-1): < 2 nM | IC50 (NOS-1): < 2 nM | IC50 (EW-1): 3.88 nM | IC50 (Calu-6): 4.79 nM | IC50 (CGTH-W-1): < 2 nM | IC50 (D283 Med): < 2 nM | IC50 (CTB-1): 17 nM | IC50 (SK-N-DZ): 43.2 nM | IC50 (SBC-1): 48 nM | IC50 (NCI-H1581): 0.55 nM | IC50 (MZ2-MEL): 1.79 nM | IC50 (CP66-MEL): 3.6 nM | IC50 (TE-12): 10.6 nM | IC50 (EW-16): 0.598 nM | IC50 (NTERA-2-cl-D1): < 2 nM | IC50 (DB): 2.55 nM | IC50 (JVM-2): > 512 nM | IC50 (RS4-11): 1.3 nM | IC50 (DEL): 10.3 nM | IC50 (MZ7-mel): 107 nM | IC50 (EW-18): 2.11 nM | IC50 (NOMO-1): > 512 nM | IC50 (HC-1): 109 nM | IC50 (GOTO): 50.5 nM | IC50 (RH-1): 43.4 nM | IC50 (CW-2): > 512 nM | IC50 (GCIY): 53.5 nM | IC50 (MFM-223): > 512 nM | IC50 (MEG-01): 10.8 nM | IC50 (KNS-42): 16.9 nM | IC50 (MZ1-PC): < 2 nM | IC50 (EOL1): 24.2 nM

C[C@]12O[C@H](C[C@]1(O)CO)n1c3ccccc3c3c4c(c5c6ccccc6n2c5c31)CNC4=O [LESTAURTINIB]
IC50 (KP-N-YS): 713 nM | IC50 (BB49-HNC): 1640 nM | IC50 (NCI-H209): 36.7 nM | IC50 (LAMA-84): 48.5 nM | IC50 (EW-24): 266 nM | IC50 (KE-37): 16.8 nM | IC50 (SW872): > 2000 nM | IC50 (NMC-G1): 411 nM | IC50 (CTV-1): 189 nM | IC50 (DJM-1): 659 nM | IC50 (SW684): 1920 nM | IC50 (OMC-1): 1180 nM | IC50 (RKO): 299 nM | IC50 (KARPAS-45): 52.4 nM | IC50 (SW 962): 154 nM | IC50 (MC116): 190 nM | IC50 (HCC1187): > 2000 nM | IC50 (TE-8): 667 nM | IC50 (HDLM-2): > 2000 nM | IC50 (HD-MY-Z): 13.9 nM | IC50 (BE-13): 280 nM | IC50 (A704): 967 nM | IC50 (ES7): 94.8 nM | IC50 (NEC8): 268 nM | IC50 (NCI-H1155): 912 nM | IC50 (D-502MG): 411 nM | IC50 (ES5): 16.5 nM | IC50 (LS-513): 1250 nM | IC50 (Mo): > 2000 nM | IC50 (IST-SL1): 112 nM | IC50 (RPMI-8226): 386 nM | IC50 (COLO-684): 853 nM | IC50 (HT-144): 978 nM | IC50 (LC-2-ad): 257 nM | IC50 (SK-LMS-1): > 2000 nM | IC50 (NOS-1): 949 nM | IC50 (EW-1): 1080 nM | IC50 (Calu-6): > 2000 nM | IC50 (CGTH-W-1): 43.6 nM | IC50 (D283 Med): 132 nM | IC50 (CTB-1): 497 nM | IC50 (SK-N-DZ): 258 nM | IC50 (SBC-1): 60.6 nM | IC50 (NCI-H1581): 356 nM | IC50 (MZ2-MEL): 236 nM | IC50 (CP66-MEL): > 2000 nM | IC50 (TE-12): > 2000 nM | IC50 (EW-16): 226 nM | IC50 (NTERA-2-cl-D1): 363 nM | IC50 (DB): 802 nM | IC50 (JVM-2): > 2000 nM | IC50 (RS4-11): 61.9 nM | IC50 (DEL): 47.3 nM | IC50 (MZ7-mel): 603 nM | IC50 (EW-18): 635 nM | IC50 (NOMO-1): 149 nM | IC50 (HC-1): 922 nM | IC50 (GOTO): 940 nM | IC50 (RH-1): 149 nM | IC50 (CW-2): > 2000 nM | IC50 (GCIY): > 2000 nM | IC50 (MFM-223): 333 nM | IC50 (MEG-01): 456 nM | IC50 (KNS-42): > 2000 nM | IC50 (MZ1-PC): > 2000 nM | IC50 (EOL1): 8.69 nM
